Patent US6503947B1, “Method of treating cytotoxic damage” (Brigham and Women's Hospital, priority 1998, dated 2003)

Assays:
[1] = Pharmacokinetics of SHA in blood and brain after i.p. injection; type: in vivo, Sprague-Dawley rats; settings: 400 mg/kg i.p., rat
Method: SHA (400 mg/kg) was injected intraperitoneally (i.p.) into Sprague-Dawley rats. At fixed time intervals after injection, blood samples were collected, and perfused brain was removed and homogenized. Acidified blood and brain samples were extracted in ethyl acetate. SHA was quantitated by reverse phase HPLC at 310 nm, and compared to known amounts of standards that had been added to blood or brain tissue as shown in FIG. 4.
The time of SHA injection after the onset of ischemia or reperfusion can be systematically varied to determine other ranges in which therapeutic intervention is available using this drug.

[2] = system: mice subjected to middle cerebral artery occlusion; experiment: Middle cerebral artery (MCA) occlusion stroke model, infarct volume with SHA; type: in vivo, C57BL/6 mice; settings: 400 mg/kg i.p. twice (at occlusion and 1.5 h later), sacrifice at 24 hours, mean±SEM, n=3
Method: FIG. 5 is a graph depicting the infarct volume of C57BL/6 mice subjected to middle cerebral artery occlusion and treated with saline (Control, n=3) or SHA (SHA, n=3).
SHA was tested for its ability to prevent cytotoxic damage by using the middle cerebral artery (MCA) occlusion stroke model (Longa et al., supra). Briefly, this system involves anesthetizing mice with isoflurane and then maintaining the body temperature of the mice at 36±1° C. A 6.0 monofilament nylon suture with silicone-coated tip was then advanced into the internal carotid artery about 9 mm via the external carotid artery. Immediately after the filament was secured, SHA (400 mg/kg i.p.) or vehicle (normal saline) was injected. At 1.5 hours after the first injection, a second i.p. injection was given to the animal. 2 hours later the animals were re-anesthetized and the filament was removed to allow reperfusion. Cerebral blood flow, blood pressure, blood gases, pH, and serum glucose were monitored in these studies. At 24 hours the animals were sacrificed, brains removed and 1 mm thick brain section are cut on a vibratome. The brain slices were stained with 2% triphenyltetrazolium choloride. The infarct volume was obtained as described in Swanson et al., supra with results being (mean+SEM, n=3 in each group) 62.6±34.2 mm^3 in the vehicle-treated group versus 6.1±6.0 mm^3 in the SHA-treated group.

[3] = target: complement C3 (Homo sapiens, UniProt P01024); experiment: complement C3 inhibitory IC50 of SHA; type: biochemical
[4] = system: mice subjected to middle cerebral artery occlusion; experiment: Intravenous injection of tPA into tPA-deficient or wild-type mice with intraluminal filament MCA occlusion; type: in vivo, mice (C57BL/6 or SV129)
Method: Wild-type and tPA-deficient male mice (on C57Black/6 and SV129 backgrounds) weighing 23-27 grams were housed in a 12 hour light/dark cycle and permitted food and water intake ad libitum. Transient ischemia/reperfusion was performed using the intravascular filament model to occlude the middle cerebral artery unilaterally for 2 or 3 hours followed by reperfusion for the remainder of the 24 hour period as described in Longa et al., Stroke 20, 84-91 (1989) and Soriano. et al. Ann. Neurol. 39, 618-624 (1996). Briefly, under isoflurane anesthesia, a 6.0 nylon filament coated with silicone was threaded into the lumen of the middle cerebral artery of mice (C57Black/6 and SVI29 backgrounds) to produce transient ischemia. After 2 or 3 hours of occlusion, the filament was gently withdrawn to allow tissue reperfusion. Body temperature was maintained at 36.5±1.0° C. […] Animals were sacrificed 24 hours after the onset of the insult as described in Huang et al. Science 265, 1883-1885 (1994) and Soriano, supra. Infarct volumes were digitally quantified on 1.5 mm thick coronal sections after correction for edema by measuring TTC staining, as described in Soriano, supra, Bederson et al., Stroke 17,472-476 (1986); Swanson et al., J. Cereb. Blood Flow Metab. 10, 290-293 (1990), Lin et al., Stroke 24, 117-121 (1993); Zhang, et al., Neurology 44, 1747-1751 (1994); and Chopp et al. Stroke 25, 869-876 (1994)). Infarct volume decreased from 116±8 mm^3 in control wild-type mice to 69±7 mm^3 in tPA-deficient mice (mean±s.e.m., n=19 mice), as shown in FIG. 1. Under these conditions, there is no thrombosis at the occluded site, so the absence of tPA would not contribute to damage via an enhanced clotting cascade.
To determine the effect of intravenous injection of tPA into tPA-deficient or wild-type mice (C57BL/6 or SV129), intravenous tPA was administered intravenously, 10% initially by bolus, followed by constant infusion over twenty to thirty minutes at 0.9-1.0 mg/kg (similar to rt-PA Stroke Study Group, N. EngL J. Med. 333, 1581-1587 (1995) and Hacke. et al. JAMA 274, 1017-1025 (1995). The formula for the carrier used to dilute tPA was obtained from the manufacturer (Genentech, San Francisco, Calif.) and was used as one of the control injections. The diluent consisted of 0.02 M arginine phosphate at pH 7.3 with 0.001% Tween. […] In wildtype, but not tPA deficient mice, ischemia induced an increase in tPA activity, as assessed by histological zymography. Briefly, wild-type or tPA deficient mice were subjected to 2 hours of focal ischemia. After 10 minutes of reperfusion, the animals were sacrificed and their brains frozen as described previously (Tsirka et al., Nature 377, 340-344 (1995)). Then, 12 μm consecutive coronal brain cryostat sections were subjected to histological zymography to visualize tPA activity with or without amiloride (1 mM, a specific urokinase [uPA] inhibitor) (Sappino et al J. Clin. Invest. 92, 679-685 (1993) and Rosenberg et al., Cereb. Blood Flow Metab. 16, 360-366 (1996)). The sections were overlaid with a milk-agarose substrate matrix containing 50 ug/ml of purified human plasminogen and 1 mg/ml amiloride. […]
Regional cerebral blood flow was also monitored by the laser Doppler flowmetry technique as described in Dimagl et al J. Cereb. […] Briefly, the initial reading of regional Cerebral Blood Flow (rCBF) was assigned a value of 100% and subsequent readings were expressed relative to this value. […]

Chain of complement C3 (P01024 23-1663, species assumed): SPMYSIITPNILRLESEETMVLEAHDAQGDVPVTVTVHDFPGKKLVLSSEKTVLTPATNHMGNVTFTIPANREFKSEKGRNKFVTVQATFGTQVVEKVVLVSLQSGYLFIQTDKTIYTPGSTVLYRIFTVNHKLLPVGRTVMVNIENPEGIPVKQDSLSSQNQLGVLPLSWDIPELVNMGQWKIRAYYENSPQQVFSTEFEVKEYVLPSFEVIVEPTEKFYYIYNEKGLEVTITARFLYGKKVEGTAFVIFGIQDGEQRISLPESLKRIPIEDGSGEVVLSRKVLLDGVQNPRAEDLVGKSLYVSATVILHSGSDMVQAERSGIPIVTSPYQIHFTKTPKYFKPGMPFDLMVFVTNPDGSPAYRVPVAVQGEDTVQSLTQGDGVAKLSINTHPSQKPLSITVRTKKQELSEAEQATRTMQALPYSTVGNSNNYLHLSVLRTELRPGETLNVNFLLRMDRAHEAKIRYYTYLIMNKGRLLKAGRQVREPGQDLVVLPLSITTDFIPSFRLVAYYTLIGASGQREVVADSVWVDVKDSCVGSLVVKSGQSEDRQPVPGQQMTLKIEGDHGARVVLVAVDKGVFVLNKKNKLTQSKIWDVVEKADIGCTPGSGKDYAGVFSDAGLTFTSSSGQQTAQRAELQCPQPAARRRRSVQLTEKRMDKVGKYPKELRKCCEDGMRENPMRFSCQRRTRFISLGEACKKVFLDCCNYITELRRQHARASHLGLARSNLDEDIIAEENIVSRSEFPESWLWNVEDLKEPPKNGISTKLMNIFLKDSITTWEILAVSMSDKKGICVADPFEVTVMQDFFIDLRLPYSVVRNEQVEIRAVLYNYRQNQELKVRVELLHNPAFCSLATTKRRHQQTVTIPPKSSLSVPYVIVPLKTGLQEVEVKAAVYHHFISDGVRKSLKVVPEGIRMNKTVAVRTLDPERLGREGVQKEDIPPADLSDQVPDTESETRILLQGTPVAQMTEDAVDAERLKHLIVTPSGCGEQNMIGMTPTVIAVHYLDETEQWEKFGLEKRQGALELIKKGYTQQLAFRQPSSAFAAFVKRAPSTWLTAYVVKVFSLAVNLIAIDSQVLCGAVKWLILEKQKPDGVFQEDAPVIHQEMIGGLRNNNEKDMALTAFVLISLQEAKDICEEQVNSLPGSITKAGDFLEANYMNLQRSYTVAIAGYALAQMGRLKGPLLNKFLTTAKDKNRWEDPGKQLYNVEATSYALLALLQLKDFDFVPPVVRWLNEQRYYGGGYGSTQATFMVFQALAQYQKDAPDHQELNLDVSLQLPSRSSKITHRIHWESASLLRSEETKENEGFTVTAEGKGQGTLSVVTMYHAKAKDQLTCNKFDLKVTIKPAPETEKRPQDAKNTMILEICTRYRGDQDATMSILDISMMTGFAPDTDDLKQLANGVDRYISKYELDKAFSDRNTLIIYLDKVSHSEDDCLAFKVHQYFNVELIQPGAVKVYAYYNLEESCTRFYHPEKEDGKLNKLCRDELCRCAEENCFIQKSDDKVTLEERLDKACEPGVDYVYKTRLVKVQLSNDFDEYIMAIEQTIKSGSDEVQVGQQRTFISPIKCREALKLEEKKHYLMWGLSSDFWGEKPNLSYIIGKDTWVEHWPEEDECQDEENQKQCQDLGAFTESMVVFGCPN

Row | Compound | ability to cross the blood-brain barrier ([1]; normal brain) | time after injection during which SHA concentration in blood and brain exceeds the complement C3 IC50 ([1]; blood and brain) [h] | time of peak concentration in blood and brain after drug administration ([1]; blood and brain) | infarct volume [2] [mm^3] | IC50 [3] [µM] | complement C3 inhibitory IC50, equivalent brain concentration ([3]; equivalent of the IC50 expressed per g brain) [mg SHA/g brain] | hemorrhage or other bleeding diathesis at postmortem examination ([4]; tPA 0.9-1.0 mg/kg i.v., all animals) | entry of tPA activity into the brain (histological zymography) ([4]; tPA-deficient mice, intravenous exogenous tPA) | increase in size of cerebral infarction ([4]; tPA-deficient mice, tPA 0.9-1.0 mg/kg i.v.) | effect on size of the stroke with large cerebral infarcts ([4]; wild-type mice, 3 hours of vascular occlusion, versus control animals not receiving tPA) | increase in size of cerebral infarction ([4]; wild-type mice, tPA 0.9-1.0 mg/kg i.v., 2 hour occlusion)
1 | O=C(NO)c1ccccc1O [SHA, salicylhydroxamic acid] | able to cross the blood-brain barrier quite effectively | 2 | about 30 minutes | 6.1±6.0 | 8.3 | 0.0013 |  |  |  |  | 
2 | tPA: serine protease tissue plasminogen activator, thrombolytic agent, commercially available from Genentech |  |  |  |  |  |  | No hemorrhage or other bleeding diathesis occurred | apparent entry of tPA activity into the brain | near doubling of the damage | did not enhance the size of the stroke | 20-35%
